Results reported in publication PMC5672931 (British Journal of Cancer, 2017).
“And” between values parts separate entries of the source, which are not always exact repeats. Identical values can stand only once.

Test system: patients with advanced malignancies
Experiment: safety and tolerability: adverse events
Format: in vivo, human
Settings: for Diarrhoea / Fatigue / Nausea / Neutropenia / Vomiting / Abdominal pain / Alopecia / Anaemia / Decreased appetite / Dehydration / Dizziness / Febrile neutropenia / Headache / Hyperbilirubinemia / Hyperglycaemia / Hyperuricemia / Hypotension / Increased ALT / Increased AST / Increased alkaline phosphatase / Leukopenia / Pancytopenia / Thrombocytopenia / Bacterial sepsis: treatment-related
[1] = 2-h infusion at RP2D 50 mg m^−2, fifteen patients, all grades
[2] = 8- and 24-h infusion n=26, all grades
[3] = 8- and 24-h infusion n=26, grade 3–4
[4] = 8-h infusions, 16 patients, all grades
[5] = 8-h infusions, 16 patients, grade 3 or 4
[6] = 24-h infusions, 10 patients, all grades

CCc1cnn2c(NCc3ccc[n+]([O-])c3)cc(N3CCCC[C@H]3CCO)nc12 [dinaciclib, Dinaciclib]
deaths before study treatment was discontinued (one of gram-negative sepsis (29.6 mg m^−2, part 1), others related to progressive disease): Eight | SAE bacterial sepsis (part 1): 2 (6%) n (%) | SAE febrile neutropenia (part 1): 2 (6%) n (%) | SAE hyperbilirubinemia (part 1): 3 (8%) n (%) | SAE hypotension (part 1): 3 (8%) n (%) | SAE increased AST (part 1): 2 (6%) n (%) | SAE neutropenia (part 1): 4 (11%) n (%) | SAE febrile neutropenia (part 2): 2 (8%) n (%) | SAE hypotension (part 2): 3 (12%) n (%) | SAE neutropenia (part 2): 2 (8%) n (%) | patients with serious AEs (SAEs) (part 2 (8- and 24-h infusions)): 10 (38%) n (%) | Diarrhoea [1]: 8 (53%) n (%) | Fatigue [1]: 9 (60%) n (%) | Nausea [1]: 12 (80%) n (%) | Neutropenia [1]: 9 (60%) n (%) | Vomiting [1]: 11 (73%) n (%) | Abdominal pain (2-h infusion n=35, all grades): 2 (6) n (%) | Alopecia (2-h infusion n=35, all grades): 4 (11) n (%) | Anaemia (2-h infusion n=35, all grades): 4 (11) n (%) | Decreased appetite (2-h infusion n=35, all grades): 5 (14) n (%) | Dehydration (2-h infusion n=35, all grades): 3 (9) n (%) | Diarrhoea (2-h infusion n=35, all grades): 16 (46%) n (%) and 16 (46) n (%) | Dizziness (2-h infusion n=35, all grades): 3 (9) n (%) | Fatigue (2-h infusion n=35, all grades): 13 (37%) n (%) and 13 (37) n (%) | Febrile neutropenia (2-h infusion n=35, all grades): 2 (6) n (%) | Headache (2-h infusion n=35, all grades): 4 (11) n (%) | Hyperbilirubinemia (2-h infusion n=35, all grades): 3 (9) n (%) | Hyperglycaemia (2-h infusion n=35, all grades): 1 (3) n (%) | Hyperuricemia (2-h infusion n=35, all grades): 2 (6) n (%) | Hypotension (2-h infusion n=35, all grades): 3 (9) n (%) | Increased ALT (2-h infusion n=35, all grades): 4 (11) n (%) | Increased AST (2-h infusion n=35, all grades): 6 (17) n (%) | Increased alkaline phosphatase (2-h infusion n=35, all grades): 1 (3) n (%) | Leukopenia (2-h infusion n=35, all grades): 8 (23) n (%) | Nausea (2-h infusion n=35, all grades): 23 (66%) n (%) and 23 (66) n (%) | Neutropenia (2-h infusion n=35, all grades): 18 (51%) n (%) and 18 (51) n (%) | Pancytopenia (2-h infusion n=35, all grades): 1 (3) n (%) | Thrombocytopenia (2-h infusion n=35, all grades): 1 (3) n (%) | Vomiting (2-h infusion n=35, all grades): 23 (66%) n (%) and 23 (66) n (%) | Abdominal pain (2-h infusion n=35, grade 3–4): 0 n (%) | Alopecia (2-h infusion n=35, grade 3–4): 0 n (%) | Anaemia (2-h infusion n=35, grade 3–4): 0 n (%) | Decreased appetite (2-h infusion n=35, grade 3–4): 0 n (%) | Dehydration (2-h infusion n=35, grade 3–4): 1 (3) n (%) | Diarrhoea (2-h infusion n=35, grade 3–4): 0 n (%) | Dizziness (2-h infusion n=35, grade 3–4): 0 n (%) | Fatigue (2-h infusion n=35, grade 3–4): 0 n (%) | Febrile neutropenia (2-h infusion n=35, grade 3–4): 2 (6%) n (%) and 2 (6) n (%) | Headache (2-h infusion n=35, grade 3–4): 0 n (%) | Hyperbilirubinemia (2-h infusion n=35, grade 3–4): 0 n (%) | Hyperglycaemia (2-h infusion n=35, grade 3–4): 1 (3) n (%) | Hyperuricemia (2-h infusion n=35, grade 3–4): 2 (6%) n (%) and 2 (6) n (%) | Hypotension (2-h infusion n=35, grade 3–4): 1 (3) n (%) | Increased ALT (2-h infusion n=35, grade 3–4): 2 (6%) n (%) and 2 (6) n (%) | Increased AST (2-h infusion n=35, grade 3–4): 3 (9%) n (%) and 3 (9) n (%) | Increased alkaline phosphatase (2-h infusion n=35, grade 3–4): 1 (3) n (%) | Leukopenia (2-h infusion n=35, grade 3–4): 6 (17%) n (%) and 6 (17) n (%) | Nausea (2-h infusion n=35, grade 3–4): 0 n (%) | Neutropenia (2-h infusion n=35, grade 3–4): 16 (46%) n (%) and 16 (46) n (%) | Pancytopenia (2-h infusion n=35, grade 3–4): 1 (3) n (%) | Thrombocytopenia (2-h infusion n=35, grade 3–4): 1 (3) n (%) | Vomiting (2-h infusion n=35, grade 3–4): 1 (3) n (%) | Abdominal pain [2]: 1 (4) n (%) | Alopecia [2]: 2 (8) n (%) | Anaemia [2]: 3 (12) n (%) | Bacterial sepsis [2]: 1 (4) n (%) | Decreased appetite [2]: 2 (8) n (%) | Dehydration [2]: 2 (8) n (%) | Diarrhoea [2]: 7 (27) n (%) | Dizziness [2]: 2 (8) n (%) | Fatigue [2]: 10 (38) n (%) | Febrile neutropenia [2]: 2 (8) n (%) | Headache [2]: 0 n (%) | Hyperbilirubinemia [2]: 1 (4) n (%) | Hyperglycaemia [2]: 0 n (%) | Hyperuricemia [2]: 0 n (%) | Hypotension [2]: 5 (19) n (%) | Increased ALT [2]: 1 (4) n (%) | Increased AST [2]: 2 (8) n (%) | Increased alkaline phosphatase [2]: 3 (12) n (%) | Leukopenia [2]: 0 n (%) | Nausea [2]: 9 (35) n (%) | Neutropenia [2]: 7 (27) n (%) | Pancytopenia [2]: 0 n (%) | Thrombocytopenia [2]: 1 (4) n (%) | Vomiting [2]: 7 (27) n (%) | Abdominal pain [3]: 1 (4) n (%) | Alopecia [3]: 0 n (%) | Anaemia [3]: 0 n (%) | Bacterial sepsis [3]: 1 (4) n (%) | Decreased appetite [3]: 0 n (%) | Dehydration [3]: 0 n (%) | Diarrhoea [3]: 0 n (%) | Dizziness [3]: 0 n (%) | Fatigue [3]: 2 (8) n (%) | Febrile neutropenia [3]: 2 (8) n (%) | Headache [3]: 0 n (%) | Hyperbilirubinemia [3]: 1 (4) n (%) | Hyperglycaemia [3]: 0 n (%) | Hyperuricemia [3]: 0 n (%) | Hypotension [3]: 2 (8) n (%) | Increased ALT [3]: 0 n (%) | Increased AST [3]: 1 (4) n (%) | Increased alkaline phosphatase [3]: 2 (8) n (%) | Leukopenia [3]: 0 n (%) | Nausea [3]: 0 n (%) | Neutropenia [3]: 6 (23) n (%) | Pancytopenia [3]: 0 n (%) | Thrombocytopenia [3]: 0 n (%) | Vomiting [3]: 0 n (%) | Diarrhoea [4]: 7 (44%) n (%) | Fatigue [4]: 8 (50%) n (%) | Nausea [4]: 7 (44%) n (%) | Neutropenia [4]: 7 (44%) n (%) | Vomiting [4]: 6 (38%) n (%) | Febrile neutropenia [5]: 2 (13%) n (%) | Hypotension [5]: 2 (13%) n (%) | Neutropenia [5]: 6 (38%) n (%) | Fatigue [6]: 2 (20%) n (%) | Increased AST [6]: 2 (20%) n (%) | Increased alkaline phosphatase [6]: 2 (20%) n (%) | Nausea [6]: 2 (20%) n (%) | Fatigue (24-h infusions, 10 patients, grade 3 or 4): 2 (20%) n (%)
